How the values were obtained:
[1] = Solubility of AI compound in AI-helper composition (AI compound added until saturated); type: physicochemical; details: water
Procedure: Solubility was tested by adding small amounts of AI compound to a set volume of an AI-helper composition at a certain temperature until the AI-helper composition was saturated with the AI compound, and measuring the amount of the AI compound added to calculate the solubility of the AI compound in the AI-helper composition at the temperature.

human skin tissue = assay: Penetration rate of AI compound in AI-helper composition through human skin in vitro, modified Franz cells; type: in vitro ADME
Procedure: Penetration rate of AI compound in the AI-helper composition through human skin were measured in vitro by modified Franz cells. A Franz cell had two chambers: the top sample chamber and the bottom receiving chamber. The human skin tissue (450-500 μm thick) that separated the top and the receiving chambers was isolated from the anterior or posterior thigh areas.

clinical = details: human, plasma, topical, 3 mg

Solubility of melatonin ([1]; tryptophan isopropyl ester•HA 10% w/v, HA = 1/2H2SO4, 20° C.): >1.4% (w/v)
Solubility of melatonin ([1]; tryptophan isopropyl ester•HA 10% w/v, HA = 1/3H3PO4, 20° C.): >1.2% (w/v)
Solubility of melatonin ([1]; tryptophan isopropyl ester•HA 10% w/v, HA = 2/3H3PO4, 20° C.): >1.3% (w/v)
Solubility of melatonin ([1]; tryptophan isopropyl ester•HA 10% w/v, HA = Citric acid, 20° C.): >1.2% (w/v)
Solubility of melatonin ([1]; tryptophan isopropyl ester•HA 10% w/v, HA = H2SO4, 20° C.): >1.4% (w/v)
Solubility of melatonin ([1]; tryptophan isopropyl ester•HA 10% w/v, HA = HBr, 20° C.): >1.4% (w/v)
Solubility of melatonin ([1]; tryptophan isopropyl ester•HA 10% w/v, HA = HCl, 20° C.): >1.5% (w/v)
Solubility of melatonin ([1]; tryptophan isopropyl ester•HA 10% w/v, HA = HF, 20° C.): >1.5% (w/v)
Solubility of melatonin ([1]; tryptophan isopropyl ester•HA 10% w/v, HA = HI, 20° C.): >1.3% (w/v)
Solubility of melatonin ([1]; tryptophan isopropyl ester•HA 10% w/v, HA = acetic acid, 20° C.): >1.4% (w/v)
Solubility of melatonin ([1]; tryptophan isopropyl ester•HA 10% w/v, HA = benzoic acid, 20° C.): >1.3% (w/v)
Solubility of melatonin ([1]; tryptophan isopropyl ester•HA 10% w/v, HA = butyric acid, 20° C.): >1.3% (w/v)
Solubility of melatonin ([1]; tryptophan isopropyl ester•HA 10% w/v, HA = lactic acid, 20° C.): >1.4% (w/v)
Solubility of melatonin ([1]; tyrosine isopropyl ester•HA 10% w/v, HA = 1/2H2SO4, 20° C.): >1% (w/v)
Solubility of melatonin ([1]; tyrosine isopropyl ester•HA 10% w/v, HA = 1/3H3PO4, 20° C.): >1.0% (w/v)
Solubility of melatonin ([1]; tyrosine isopropyl ester•HA 10% w/v, HA = 2/3H3PO4, 20° C.): >1.1% (w/v)
Solubility of melatonin ([1]; tyrosine isopropyl ester•HA 10% w/v, HA = H2SO4, 20° C.): >1.2% (w/v)
Solubility of melatonin ([1]; tyrosine isopropyl ester•HA 10% w/v, HA = HBr, 20° C.): >1.2% (w/v)
Solubility of melatonin ([1]; tyrosine isopropyl ester•HA 10% w/v, HA = HCl, 20° C.): >1.3% (w/v)
Solubility of melatonin ([1]; tyrosine isopropyl ester•HA 10% w/v, HA = HF, 20° C.): >1.3% (w/v)
Solubility of melatonin ([1]; tyrosine isopropyl ester•HA 10% w/v, HA = HI, 20° C.): >1% (w/v)
Solubility of melatonin ([1]; tyrosine isopropyl ester•HA 10% w/v, HA = acetic acid, 20° C.): >1.1% (w/v)
Solubility of melatonin ([1]; tyrosine isopropyl ester•HA 10% w/v, HA = benzoic acid, 20° C.): >1% (w/v)
Solubility of melatonin ([1]; tyrosine isopropyl ester•HA 10% w/v, HA = butyric acid, 20° C.): >1% (w/v)
Solubility of melatonin ([1]; tyrosine isopropyl ester•HA 10% w/v, HA = citric acid, 20° C.): >1% (w/v)
Solubility of melatonin ([1]; tyrosine isopropyl ester•HA 10% w/v, HA = lactic acid, 20° C.): >1.1% (w/v)
Skin penetration rate of melatonin (human skin tissue; 1% melatonin (a suspension) without helper esters, 20° C.): 1.153 ± 0.111 μg/cm^2/h
Skin penetration rate of melatonin (human skin tissue; melatonin 1% w/v, Tryptophan isopropyl ester•HA 6% w/v, HA = 1/2H2SO4, water, 20° C.): 15.928 ± 1.476 μg/cm^2/h
Skin penetration rate of melatonin (human skin tissue; melatonin 1% w/v, Tryptophan isopropyl ester•HA 6% w/v, HA = 2/3H3PO4, water, 20° C.): 15.691 ± 1.571 μg/cm^2/h
Skin penetration rate of melatonin (human skin tissue; melatonin 1% w/v, Tryptophan isopropyl ester•HA 6% w/v, HA = Benzoic acid, water, 20° C.): 14.665 ± 1.589 μg/cm^2/h
Skin penetration rate of melatonin (human skin tissue; melatonin 1% w/v, Tryptophan isopropyl ester•HA 6% w/v, HA = Butyric acid, water, 20° C.): 15.378 ± 1.598 μg/cm^2/h
Skin penetration rate of melatonin (human skin tissue; melatonin 1% w/v, Tryptophan isopropyl ester•HA 6% w/v, HA = Citric acid, water, 20° C.): 15.371 ± 1.287 μg/cm^2/h
Skin penetration rate of melatonin (human skin tissue; melatonin 1% w/v, Tryptophan isopropyl ester•HA 6% w/v, HA = H2SO4, water, 20° C.): 16.780 ± 1.891 μg/cm^2/h
Skin penetration rate of melatonin (human skin tissue; melatonin 1% w/v, Tryptophan isopropyl ester•HA 6% w/v, HA = HBr, water, 20° C.): 15.971 ± 1.785 μg/cm^2/h
Skin penetration rate of melatonin (human skin tissue; melatonin 1% w/v, Tryptophan isopropyl ester•HA 6% w/v, HA = HCl, water, 20° C.): 16.678 ± 1.567 μg/cm^2/h
Skin penetration rate of melatonin (human skin tissue; melatonin 1% w/v, Tryptophan isopropyl ester•HA 6% w/v, HA = HF, water, 20° C.): 16.165 ± 1.167 μg/cm^2/h
Skin penetration rate of melatonin (human skin tissue; melatonin 1% w/v, Tryptophan isopropyl ester•HA 6% w/v, HA = HI, water, 20° C.): 14.467 ± 1.183 μg/cm^2/h
Skin penetration rate of melatonin (human skin tissue; melatonin 1% w/v, Tryptophan isopropyl ester•HA 6% w/v, HA = Lactic acid, water, 20° C.): 15.897 ± 1.109 μg/cm^2/h
Skin penetration rate of melatonin (human skin tissue; melatonin 1% w/v, Tyrosine isopropyl ester•HA 6% w/v, HA = 1/2H2SO4, water, 20° C.): 15.978 ± 2.136 μg/cm^2/h
Skin penetration rate of melatonin (human skin tissue; melatonin 1% w/v, Tyrosine isopropyl ester•HA 6% w/v, HA = 1/3H3PO4, water, 20° C.): 15.848 ± 1.782 μg/cm^2/h
Skin penetration rate of melatonin (human skin tissue; melatonin 1% w/v, Tyrosine isopropyl ester•HA 6% w/v, HA = 2/3H3PO4, water, 20° C.): 16.156 ± 3.124 μg/cm^2/h
Skin penetration rate of melatonin (human skin tissue; melatonin 1% w/v, Tyrosine isopropyl ester•HA 6% w/v, HA = Acetic acid, water, 20° C.): 15.983 ± 3.471 μg/cm^2/h
Skin penetration rate of melatonin (human skin tissue; melatonin 1% w/v, Tyrosine isopropyl ester•HA 6% w/v, HA = Benzoic acid, water, 20° C.): 17.002 ± 3.257 μg/cm^2/h
Skin penetration rate of melatonin (human skin tissue; melatonin 1% w/v, Tyrosine isopropyl ester•HA 6% w/v, HA = Butyric acid, water, 20° C.): 16.125 ± 1.972 μg/cm^2/h
Skin penetration rate of melatonin (human skin tissue; melatonin 1% w/v, Tyrosine isopropyl ester•HA 6% w/v, HA = Citric acid, water, 20° C.): 16.246 ± 2.319 μg/cm^2/h
Skin penetration rate of melatonin (human skin tissue; melatonin 1% w/v, Tyrosine isopropyl ester•HA 6% w/v, HA = H2SO4, water, 20° C.): 16.632 ± 1.357 μg/cm^2/h
Skin penetration rate of melatonin (human skin tissue; melatonin 1% w/v, Tyrosine isopropyl ester•HA 6% w/v, HA = HBr, water, 20° C.): 16.578 ± 2.117 μg/cm^2/h
Skin penetration rate of melatonin (human skin tissue; melatonin 1% w/v, Tyrosine isopropyl ester•HA 6% w/v, HA = HF, water, 20° C.): 15.765 ± 1.946 μg/cm^2/h
Skin penetration rate of melatonin (human skin tissue; melatonin 1% w/v, Tyrosine isopropyl ester•HA 6% w/v, HA = HI, water, 20° C.): 15.863 ± 1.970 μg/cm^2/h
Skin penetration rate of melatonin (human skin tissue; melatonin 1% w/v, Tyrosine isopropyl ester•HA 6% w/v, HA = Lactic acid, water, 20° C.): 16.029 ± 2.467 μg/cm^2/h
Skin penetration rate of melatonin (human skin tissue; no helper ester (None), melatonin 1 % w/v (suspension) in water, 20 °C): 1.153 ± 0.111 μg/cm^2/h
Skin penetration rate of AI compound (human skin tissue; no isoleucine ester (None), AI compound 0.5 % w/v (a suspension) in water, 20 °C): 1.147 ± 0.123 μg/cm^2/h
Skin penetration rate of AI compound (human skin tissue; no leucine ester (None), AI compound 0.5 % w/v (a suspension) in water, 20 °C): 1.147 ± 0.123 μg/cm^2/h
Skin penetration rate of melatonin (human skin tissue; no proline ester (None), melatonin 0.5 % w/v (suspension) in water, 20 °C): 1.147 ± 0.123 μg/cm^2/h
Skin penetration rate of AI compound (human skin tissue; no tryptophan ester (None), AI compound 1 % w/v (suspension) in water, 20 °C): 1.153 ± 0.111 μg/cm^2/h
Skin penetration rate of melatonin (human skin tissue; no tyrosine ester (None), melatonin 1 % w/v (suspension) in water, 20 °C): 1.153 ± 0.111 μg/cm^2/h
Skin penetration rate of AI compound (human skin tissue; with D-tryptophan ethyl ester hydrochloride 6 % w/v in water, AI compound 1 % w/v, 20 °C): 16.011 ± 1.511 μg/cm^2/h
Skin penetration rate of AI compound (human skin tissue; with D-tryptophan isopropyl ester hydrochloride 6 % w/v in water, AI compound 1 % w/v, 20 °C): 16.451 ± 1.473 μg/cm^2/h
Skin penetration rate of AI compound (human skin tissue; with D-tryptophan pentyl ester hydrochloride 6 % w/v in water, AI compound 1 % w/v, 20 °C): 15.003 ± 1.513 μg/cm^2/h
Skin penetration rate of AI compound (human skin tissue; with L-isoleucine ethyl ester hydrochloride 6 % w/v in water, AI compound 0.5 % w/v, 20 °C): 9.012 ± 0.148 μg/cm^2/h
Skin penetration rate of AI compound (human skin tissue; with L-isoleucine isopropyl ester hydrochloride 6 % w/v in water, AI compound 0.5 % w/v, 20 °C): 9.015 ± 0.161 μg/cm^2/h
Skin penetration rate of AI compound (human skin tissue; with L-isoleucine methyl ester hydrochloride 6 % w/v in water, AI compound 0.5 % w/v, 20 °C): 8.712 ± 0.168 μg/cm^2/h
Skin penetration rate of AI compound (human skin tissue; with L-isoleucine pentyl ester hydrochloride 6 % w/v in water, AI compound 0.5 % w/v, 20 °C): 8.219 ± 0.201 μg/cm^2/h
Skin penetration rate of AI compound (human skin tissue; with L-leucine ethyl ester hydrochloride 6 % w/v in water, AI compound 0.5 % w/v, 20 °C): 9.101 ± 0.153 μg/cm^2/h
Skin penetration rate of AI compound (human skin tissue; with L-leucine hexyl ester hydrochloride 6 % w/v in water, AI compound 0.5 % w/v, 20 °C): 8.019 ± 0.181 μg/cm^2/h
Skin penetration rate of AI compound (human skin tissue; with L-leucine isopropyl ester hydrochloride 6 % w/v in water, AI compound 0.5 % w/v, 20 °C): 9.371 ± 0.137 μg/cm^2/h
Skin penetration rate of AI compound (human skin tissue; with L-leucine methyl ester hydrochloride 6 % w/v in water, AI compound 0.5 % w/v, 20 °C): 9.058 ± 0.131 μg/cm^2/h
Skin penetration rate of AI compound (human skin tissue; with L-tryptophan butyl ester hydrochloride 6 % w/v in water, AI compound 1 % w/v, 20 °C): 15.676 ± 1.574 μg/cm^2/h
Skin penetration rate of AI compound (human skin tissue; with L-tryptophan isopropyl ester hydrochloride 6 % w/v in water, AI compound 1 % w/v, 20 °C): 16.678 ± 1.567 μg/cm^2/h
Skin penetration rate of AI compound (human skin tissue; with L-tryptophan pentyl ester hydrochloride 6 % w/v in water, AI compound 1 % w/v, 20 °C): 15.012 ± 1.315 μg/cm^2/h
concentration at 0 hr (clinical): 0 ng/mL
concentration at 1 h (clinical): 1.4 ng/mL
concentration at 1 hr (clinical): 1.6 ng/mL
concentration at 2 h (clinical): 1.5 ng/mL
concentration at 2 hr (clinical): 1.7 ng/mL
concentration at 4 h (clinical): 1.5 ng/mL
concentration at 4 hr (clinical): 1.8 ng/mL
concentration at 8 h (clinical): 1.4 ng/mL
concentration at 8 hr (clinical): 1.7 ng/mL
Compound: COc1ccc2[nH]cc(CCNC(C)=O)c2c1 [Melatonin]
